ChEMBL document CHEMBL1201862, “PubChem BioAssay data set” (2004)
Active and inactive are the calls of the source.

Tests used:
[1] = target: Cytochrome P450 2C9 (Homo sapiens, UniProt P11712)
[2] = target: T1, Calpain-2 catalytic subunit (Sus scrofa, UniProt P43367); assay: m-calpain protease blockers, concentration series – biochemical, fluorogenic peptide substrate, dose response (AID 1420); format: functional
T1 sequence (P43367 whole entry): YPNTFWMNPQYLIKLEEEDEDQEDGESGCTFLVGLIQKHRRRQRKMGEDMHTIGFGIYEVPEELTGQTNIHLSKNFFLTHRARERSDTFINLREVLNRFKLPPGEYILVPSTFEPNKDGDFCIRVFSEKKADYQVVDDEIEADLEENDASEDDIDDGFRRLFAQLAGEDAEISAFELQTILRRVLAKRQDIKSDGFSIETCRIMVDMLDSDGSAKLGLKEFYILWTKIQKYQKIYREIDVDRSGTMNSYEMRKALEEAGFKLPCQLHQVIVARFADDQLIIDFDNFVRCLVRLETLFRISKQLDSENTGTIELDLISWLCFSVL

[3] = target: Heat shock protein HSP 90-alpha (Homo sapiens, UniProt P07900); format: functional, organism-based
[4] = target: T2, Cytochrome P450 1A2 (Homo sapiens, UniProt P05177);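 further: PubChem cytochrome P450 panel assay, CYP1A2 panel member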
T2 sequence (P05177 whole entry): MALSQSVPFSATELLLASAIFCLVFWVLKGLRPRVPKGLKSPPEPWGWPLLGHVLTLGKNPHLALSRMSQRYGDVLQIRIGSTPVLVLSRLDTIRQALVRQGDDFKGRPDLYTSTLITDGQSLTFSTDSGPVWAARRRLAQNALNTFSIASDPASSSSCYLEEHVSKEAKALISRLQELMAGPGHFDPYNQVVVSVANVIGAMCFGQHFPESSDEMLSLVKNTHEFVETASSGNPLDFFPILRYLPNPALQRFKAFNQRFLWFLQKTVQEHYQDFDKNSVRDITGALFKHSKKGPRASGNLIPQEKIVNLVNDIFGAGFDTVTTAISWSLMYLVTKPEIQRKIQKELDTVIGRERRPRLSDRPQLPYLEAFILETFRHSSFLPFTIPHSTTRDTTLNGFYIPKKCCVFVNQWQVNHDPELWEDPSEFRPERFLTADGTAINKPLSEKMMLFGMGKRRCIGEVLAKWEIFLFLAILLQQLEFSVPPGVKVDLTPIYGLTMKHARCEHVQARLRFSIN

[5] = target: T3, Leucine aminopeptidase (Plasmodium falciparum 3D7, UniProt Q8IL11); assay: P. falciparum M17LAP inhibitors, primary screen, biochemical, fluorogenic H-Leu-NHMec substrate, 1536-well (AID 1619); format: functional
T3 sequence (Q8IL11 whole entry): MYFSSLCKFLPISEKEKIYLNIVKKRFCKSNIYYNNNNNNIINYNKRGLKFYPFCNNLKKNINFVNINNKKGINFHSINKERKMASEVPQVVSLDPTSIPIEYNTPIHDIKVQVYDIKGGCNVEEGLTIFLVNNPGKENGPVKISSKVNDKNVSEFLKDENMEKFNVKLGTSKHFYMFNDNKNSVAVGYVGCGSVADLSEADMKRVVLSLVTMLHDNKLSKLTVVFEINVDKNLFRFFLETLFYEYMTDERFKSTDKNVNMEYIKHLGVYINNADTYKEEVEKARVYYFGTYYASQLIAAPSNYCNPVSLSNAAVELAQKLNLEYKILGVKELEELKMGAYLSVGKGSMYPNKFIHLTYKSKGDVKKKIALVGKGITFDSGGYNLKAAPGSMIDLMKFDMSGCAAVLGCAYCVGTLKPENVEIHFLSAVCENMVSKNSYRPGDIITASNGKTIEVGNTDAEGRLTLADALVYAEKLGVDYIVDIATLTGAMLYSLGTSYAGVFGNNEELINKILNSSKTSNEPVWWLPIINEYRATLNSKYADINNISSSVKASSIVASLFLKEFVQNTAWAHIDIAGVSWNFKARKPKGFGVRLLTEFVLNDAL

[6] = NIH-3T3 fibroblast cytotoxicity, dose response, cytotoxicity control, cell-based, fluorescence, Alamar Blue, secondary assay (AID 2327); format: functional;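 further: NIH-3T3 mouse fibroblasts cultured with fluconazole at 8 µg/mL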
[7] = system: Streptococcus sp. 'group A'; assay: Streptococcus pyogenes SK(-)GAS viability under kanamycin – luminescence, BacTiterGlo, confirmation, counter-screen for streptokinase expression inhibitor project, dose response (AID 1900); format: functional, organism-based
[8] = fluconazole-exposed Candida albicans growth modulators – fluorescence, retest, confirmation (AID 2467); format: functional, cell-based
[9] = system: Streptococcus; assay: GAS UMAA2166 growth inhibition – luminescence, BacTiterGlo, counter-screen for streptokinase expression inhibitor project, dose response (AID 1915); format: functional, organism-based;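 further: potency for reduction of bacterial viability or growth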
[10] = target: Cytochrome P450 2D6 (Homo sapiens, UniProt P10635);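 further: CYP2D6 member of a cytochrome P450 panel assay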
Sequence of Cytochrome P450 2D6 (P10635 whole entry): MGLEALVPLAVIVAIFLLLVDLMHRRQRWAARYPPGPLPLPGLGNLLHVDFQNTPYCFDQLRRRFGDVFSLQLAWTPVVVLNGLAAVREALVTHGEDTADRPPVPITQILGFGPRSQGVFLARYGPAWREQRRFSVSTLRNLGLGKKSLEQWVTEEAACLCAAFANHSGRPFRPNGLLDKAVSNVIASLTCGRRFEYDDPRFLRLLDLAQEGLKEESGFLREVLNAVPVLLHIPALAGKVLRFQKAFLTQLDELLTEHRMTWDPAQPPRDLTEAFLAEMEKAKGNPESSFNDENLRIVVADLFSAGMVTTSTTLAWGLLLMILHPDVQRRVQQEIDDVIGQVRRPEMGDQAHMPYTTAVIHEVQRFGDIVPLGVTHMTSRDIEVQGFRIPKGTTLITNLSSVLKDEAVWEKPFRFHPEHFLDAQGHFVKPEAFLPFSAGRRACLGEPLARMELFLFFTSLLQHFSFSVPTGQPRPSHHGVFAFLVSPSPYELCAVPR

[11] = target: Peroxisome proliferator-activated receptor gamma/Nuclear receptor coactivator 1 (Homo sapiens, UniProt P37231); assay: (§1) TR-FRET dose response biochemical High Throughput Screening assay for agonists of the steroid receptor coactivator 1 (SRC-1) recruitment by the peroxisome proliferator-activated receptor gamma (PPAR gamma): non-selective agonists. [Related pubchem assays (depositor defined):AID1300, AID1808, AID504735, AID631]; format: protein assay
Sequence of Peroxisome proliferator-activated receptor gamma/Nuclear receptor coactivator 1 (P37231 whole entry): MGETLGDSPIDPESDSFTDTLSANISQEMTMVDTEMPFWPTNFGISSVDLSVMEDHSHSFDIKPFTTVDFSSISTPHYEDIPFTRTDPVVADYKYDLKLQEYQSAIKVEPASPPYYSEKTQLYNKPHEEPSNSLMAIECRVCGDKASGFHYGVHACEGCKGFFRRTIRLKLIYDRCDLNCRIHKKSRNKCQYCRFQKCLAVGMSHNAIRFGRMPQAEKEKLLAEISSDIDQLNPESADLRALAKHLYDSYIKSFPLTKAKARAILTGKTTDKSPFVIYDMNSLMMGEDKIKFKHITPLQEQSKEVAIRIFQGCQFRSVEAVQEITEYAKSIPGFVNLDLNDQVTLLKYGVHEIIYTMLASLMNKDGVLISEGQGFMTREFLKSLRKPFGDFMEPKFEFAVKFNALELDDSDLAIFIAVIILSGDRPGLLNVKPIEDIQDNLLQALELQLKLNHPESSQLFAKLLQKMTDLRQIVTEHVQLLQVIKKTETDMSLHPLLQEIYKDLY
Sequence of Peroxisome proliferator-activated receptor gamma/Nuclear receptor coactivator 1 (Q15788 whole entry, further chain): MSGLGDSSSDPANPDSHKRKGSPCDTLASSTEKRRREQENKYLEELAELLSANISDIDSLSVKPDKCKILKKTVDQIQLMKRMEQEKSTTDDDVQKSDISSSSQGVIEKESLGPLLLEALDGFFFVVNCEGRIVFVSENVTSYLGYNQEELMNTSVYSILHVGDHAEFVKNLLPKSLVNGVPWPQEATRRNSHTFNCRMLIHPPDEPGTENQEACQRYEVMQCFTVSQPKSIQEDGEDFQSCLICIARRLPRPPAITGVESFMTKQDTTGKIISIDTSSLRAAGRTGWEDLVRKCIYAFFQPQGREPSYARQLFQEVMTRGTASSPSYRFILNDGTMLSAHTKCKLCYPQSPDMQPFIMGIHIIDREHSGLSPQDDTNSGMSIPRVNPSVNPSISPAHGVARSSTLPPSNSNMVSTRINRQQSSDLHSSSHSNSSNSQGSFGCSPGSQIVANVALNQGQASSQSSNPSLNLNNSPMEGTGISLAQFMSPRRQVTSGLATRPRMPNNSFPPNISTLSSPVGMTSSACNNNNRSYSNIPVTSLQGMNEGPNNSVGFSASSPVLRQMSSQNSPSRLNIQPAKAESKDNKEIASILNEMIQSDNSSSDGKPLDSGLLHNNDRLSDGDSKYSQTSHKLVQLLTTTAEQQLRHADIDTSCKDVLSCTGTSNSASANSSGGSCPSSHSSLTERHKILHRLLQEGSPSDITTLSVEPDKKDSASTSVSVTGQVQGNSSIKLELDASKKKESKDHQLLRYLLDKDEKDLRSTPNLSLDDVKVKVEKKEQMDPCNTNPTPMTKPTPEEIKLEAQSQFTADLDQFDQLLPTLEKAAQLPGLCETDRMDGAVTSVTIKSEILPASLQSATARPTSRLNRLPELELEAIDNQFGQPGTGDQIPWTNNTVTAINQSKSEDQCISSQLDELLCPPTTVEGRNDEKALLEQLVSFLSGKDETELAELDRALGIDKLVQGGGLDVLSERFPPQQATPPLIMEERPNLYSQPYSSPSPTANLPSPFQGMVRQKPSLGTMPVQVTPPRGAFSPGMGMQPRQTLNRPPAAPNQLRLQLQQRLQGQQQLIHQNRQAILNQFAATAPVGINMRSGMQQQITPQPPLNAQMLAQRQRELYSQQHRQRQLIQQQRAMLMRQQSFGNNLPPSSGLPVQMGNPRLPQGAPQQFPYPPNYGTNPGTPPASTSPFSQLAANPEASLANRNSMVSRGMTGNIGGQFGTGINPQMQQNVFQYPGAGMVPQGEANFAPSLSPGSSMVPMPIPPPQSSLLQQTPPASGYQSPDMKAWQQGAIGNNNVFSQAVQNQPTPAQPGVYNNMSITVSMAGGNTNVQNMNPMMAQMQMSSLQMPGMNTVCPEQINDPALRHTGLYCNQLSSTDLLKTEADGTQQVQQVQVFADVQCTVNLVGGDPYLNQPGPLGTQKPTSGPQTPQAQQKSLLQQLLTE

[12] = target: Peroxisome proliferator-activated receptor gamma/Nuclear receptor coactivator 3 (Homo sapiens, UniProt P37231); assay: as §1, with “3 (SRC-3)” for “1 (SRC-1)”, “assays: 1301 (Confirmation screen.), 1048 (Primary screen.)]” for “assays (depositor defined):AID1300, AID1808, AID504735, AID631]”; format: functional
[13] = target: Peroxisome proliferator-activated receptor gamma/Nuclear receptor coactivator 2 (Homo sapiens, UniProt P37231); assay: TR-FRET dose response biochemical High Throughput Screening assay for agonists of the steroid receptor coactivator 2 (SRC-2) recruitment by the peroxisome proliferator-activated receptor gamma (PPAR gamma): non-selective agonists. [Related pubchem assays: 1297, 1032 ]; format: functional
[14] = target: T4, Polyadenylate-binding protein 1 (Homo sapiens, UniProt P11940); assay: MLLE binding blockers, Cy5 peptide tracer – biochemical, fluorescence polarization, Cy5-PAM2 peptide, secondary, miRNA deadenylation inhibitor project, dose response (AID 602260); format: functional; conditions: read-out: IC50_Mean
T4 sequence (P11940 whole entry, the tested form may be a part): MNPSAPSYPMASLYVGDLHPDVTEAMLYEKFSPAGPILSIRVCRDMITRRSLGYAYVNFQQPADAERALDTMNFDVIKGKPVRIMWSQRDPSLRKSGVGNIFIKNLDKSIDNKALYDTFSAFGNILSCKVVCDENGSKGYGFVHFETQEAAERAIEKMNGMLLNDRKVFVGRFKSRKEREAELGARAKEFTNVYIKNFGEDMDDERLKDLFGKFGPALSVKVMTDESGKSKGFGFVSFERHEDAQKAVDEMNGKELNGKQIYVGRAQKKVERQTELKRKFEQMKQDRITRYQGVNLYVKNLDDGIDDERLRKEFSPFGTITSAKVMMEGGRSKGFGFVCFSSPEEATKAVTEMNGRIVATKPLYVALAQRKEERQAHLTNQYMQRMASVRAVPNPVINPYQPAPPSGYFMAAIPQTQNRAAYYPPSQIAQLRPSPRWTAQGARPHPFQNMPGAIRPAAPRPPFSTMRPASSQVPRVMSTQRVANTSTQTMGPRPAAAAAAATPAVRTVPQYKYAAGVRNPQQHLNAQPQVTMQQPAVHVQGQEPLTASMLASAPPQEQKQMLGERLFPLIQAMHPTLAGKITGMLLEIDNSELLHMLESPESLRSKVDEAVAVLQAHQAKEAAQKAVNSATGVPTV

[15] = target: T4, Polyadenylate-binding protein 1; assay: MLLE domain peptide-binding blockers, IC50 – biochemical, fluorescence polarization, FITC-PAM2 peptide, dose response (AID 602259); format: functional; conditions: read-out: IC50_Mean
[16] = target: Cytochrome P450 2C19 (Homo sapiens, UniProt P33261); assay: Cytochrome panel assay with activity outcomes. Panel member name: p450-cyp2c19 Compounds with AC50 equal or less than 10 uM are considered active; format: functional; conditions: read-out: AC50
Sequence of Cytochrome P450 2C19 (P33261 whole entry): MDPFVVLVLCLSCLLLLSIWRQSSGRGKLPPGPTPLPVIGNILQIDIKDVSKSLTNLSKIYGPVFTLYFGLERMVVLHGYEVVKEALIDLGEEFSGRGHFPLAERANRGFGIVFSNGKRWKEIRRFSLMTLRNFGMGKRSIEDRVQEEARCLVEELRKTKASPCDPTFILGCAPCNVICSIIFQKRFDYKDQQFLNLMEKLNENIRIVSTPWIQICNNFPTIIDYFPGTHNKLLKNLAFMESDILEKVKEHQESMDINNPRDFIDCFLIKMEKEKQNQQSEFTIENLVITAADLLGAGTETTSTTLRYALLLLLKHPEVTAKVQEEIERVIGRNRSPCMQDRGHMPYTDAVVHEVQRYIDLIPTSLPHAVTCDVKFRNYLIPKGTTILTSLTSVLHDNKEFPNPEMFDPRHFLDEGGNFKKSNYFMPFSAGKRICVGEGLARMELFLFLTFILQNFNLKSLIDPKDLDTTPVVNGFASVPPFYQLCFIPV

[17] = Luminescence Cell-Based Dose Retest to Confirm Inhibitors of Cancer Stem Cells. [Related pubchem assays (depositor defined):AID2717, AID2721]; format: functional; conditions: Homo sapiens
[18] = target: T5, Replicative DNA helicase DnaB (Mycobacterium tuberculosis, UniProt P9WMR3); assay: DnaB intein splicing inhibitors, dose response, biochemical, cell-free fluorescence (AID 449749); format: functional
T5 sequence (P9WMR3 whole entry): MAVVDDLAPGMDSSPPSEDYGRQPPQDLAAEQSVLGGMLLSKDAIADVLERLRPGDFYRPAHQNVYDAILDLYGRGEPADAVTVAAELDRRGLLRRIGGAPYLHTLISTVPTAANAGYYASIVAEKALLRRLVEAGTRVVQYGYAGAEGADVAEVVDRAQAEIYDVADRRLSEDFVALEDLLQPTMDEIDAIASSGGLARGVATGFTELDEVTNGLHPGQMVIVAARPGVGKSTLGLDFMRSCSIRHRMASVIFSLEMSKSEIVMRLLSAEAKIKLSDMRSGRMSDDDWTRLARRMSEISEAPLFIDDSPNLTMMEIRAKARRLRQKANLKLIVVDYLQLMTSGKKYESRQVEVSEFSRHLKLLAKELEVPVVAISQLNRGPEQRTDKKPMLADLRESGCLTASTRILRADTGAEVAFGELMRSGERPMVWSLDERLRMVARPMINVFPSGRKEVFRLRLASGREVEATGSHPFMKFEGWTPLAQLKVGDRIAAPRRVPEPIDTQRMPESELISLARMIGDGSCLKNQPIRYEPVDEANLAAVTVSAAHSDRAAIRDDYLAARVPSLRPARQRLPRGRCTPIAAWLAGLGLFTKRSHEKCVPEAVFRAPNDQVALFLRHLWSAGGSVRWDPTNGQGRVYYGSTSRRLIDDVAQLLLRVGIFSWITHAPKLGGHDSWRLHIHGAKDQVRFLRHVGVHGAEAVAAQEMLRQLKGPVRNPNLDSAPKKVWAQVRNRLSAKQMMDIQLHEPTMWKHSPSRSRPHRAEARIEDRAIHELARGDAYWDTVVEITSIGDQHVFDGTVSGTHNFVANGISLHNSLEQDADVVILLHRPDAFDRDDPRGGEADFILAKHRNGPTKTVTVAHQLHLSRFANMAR

[19] = target: T6, Protein RecA (Mycobacterium tuberculosis, UniProt P9WHJ3); assay: Fluorescence Cell-Free Homogeneous Dose Retest to Identify Inhibitors of RecA-Intein Splicing Activity. [Related pubchem assays (depositor defined):AID2097, AID2223, AID489010, AID492950]; format: functional
T6 sequence (P9WHJ3 whole entry): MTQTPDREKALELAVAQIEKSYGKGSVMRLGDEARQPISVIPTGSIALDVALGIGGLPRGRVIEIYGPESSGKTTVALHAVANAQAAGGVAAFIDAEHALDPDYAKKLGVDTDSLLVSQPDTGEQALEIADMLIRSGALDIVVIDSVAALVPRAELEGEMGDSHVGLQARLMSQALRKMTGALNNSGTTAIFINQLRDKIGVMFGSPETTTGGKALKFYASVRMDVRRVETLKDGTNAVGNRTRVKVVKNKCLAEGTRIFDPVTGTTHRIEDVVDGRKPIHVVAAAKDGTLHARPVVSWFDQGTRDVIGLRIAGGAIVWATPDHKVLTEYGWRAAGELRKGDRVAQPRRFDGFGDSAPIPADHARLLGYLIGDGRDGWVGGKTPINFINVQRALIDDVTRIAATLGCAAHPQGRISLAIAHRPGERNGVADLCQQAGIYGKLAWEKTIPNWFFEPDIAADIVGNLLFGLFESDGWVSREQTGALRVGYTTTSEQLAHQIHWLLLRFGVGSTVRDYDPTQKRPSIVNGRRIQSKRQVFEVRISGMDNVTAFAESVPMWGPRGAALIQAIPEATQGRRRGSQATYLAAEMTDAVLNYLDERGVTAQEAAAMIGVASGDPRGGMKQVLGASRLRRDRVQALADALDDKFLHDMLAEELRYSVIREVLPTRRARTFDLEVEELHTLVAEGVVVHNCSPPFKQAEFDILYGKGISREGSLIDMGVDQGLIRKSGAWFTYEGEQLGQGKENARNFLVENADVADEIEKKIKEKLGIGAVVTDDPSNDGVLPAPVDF

Sequence of Cytochrome P450 2C9 (P11712 whole entry): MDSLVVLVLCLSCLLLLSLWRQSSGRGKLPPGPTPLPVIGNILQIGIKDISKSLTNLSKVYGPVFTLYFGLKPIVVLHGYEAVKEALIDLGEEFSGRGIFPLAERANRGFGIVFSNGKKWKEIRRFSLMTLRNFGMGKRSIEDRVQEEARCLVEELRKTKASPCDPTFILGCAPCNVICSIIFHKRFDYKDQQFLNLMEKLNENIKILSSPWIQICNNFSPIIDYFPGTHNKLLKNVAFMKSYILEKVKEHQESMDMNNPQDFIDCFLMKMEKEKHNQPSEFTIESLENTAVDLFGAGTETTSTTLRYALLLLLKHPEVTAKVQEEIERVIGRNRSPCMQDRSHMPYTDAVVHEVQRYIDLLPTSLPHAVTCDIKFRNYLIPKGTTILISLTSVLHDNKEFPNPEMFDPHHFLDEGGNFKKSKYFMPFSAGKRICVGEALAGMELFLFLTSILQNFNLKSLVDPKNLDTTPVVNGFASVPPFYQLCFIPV

SMILES: CC1=CC=CN2CC(O)CN=C12.Cl (stereo unspecified)
- AC50 [1]: inconclusive

SMILES: Cc1cc(NC(=O)CSc2nnc(-c3ccncc3)n2N)ccc1Br
- IC50 [2]: > 50 µM (not active)

SMILES: O=C/C(=N\Nc1ccccc1)C(=O)c1ccc(Cl)cc1
- AC50 [3]: 3.15 µM (active)

SMILES: COC(=O)c1ccc(N2C(=O)C3CC(C)=C(C)CC3C2=O)cc1 (stereo unspecified)
- IC50 [2]: 10.9 µM (not active)

SMILES: Cc1c(Br)cc(C(=O)NC2CCCCC2)c(C)c1C
- AC50 [4]: 3.55 µM (inconclusive)
- AC50 [1]: inconclusive

SMILES: O=C(O)c1cc(/C=N\O)ccc1OCc1ccccc1
- IC50 [5]: 16.4 µM (active)

SMILES: Cc1cccc(C)c1OCC(=O)NNC(=S)NC(=O)C1CC1
- EC50 [6]: > 160 µM (inactive)
- EC50 [7]: 0.412 µM (active)
- EC50 [8]: 1.66 µM (active)
- EC50 [9]: 7.38 µM (active)
- AC50 [3]: 1.15 µM (active)

SMILES: O=C(CCOc1ccccc1)Nc1ccc(S(=O)(=O)N2CCCC2)cc1
- IC50 [2]: 26.4 µM (not active)

SMILES: CCOc1ccc(N2C(=O)/C(=C\c3ccccc3OC)S(=O)(=O)C2c2cccc([N+](=O)[O-])c2)cc1 (stereo unspecified)
- AC50 [3]: 26.2 µM (active)

SMILES: Cc1ccc(OCCCn2c(=O)sc3ccccc32)cc1
- AC50 [10]: 14.1 µM (inconclusive)
- AC50 [1]: inconclusive

SMILES: Cc1cc(O)nc(SCC(=O)Nc2ccc(F)cc2)c1C#N
- IC50 [5]: 4.1 µM (active)

SMILES: CCN(CC)S(=O)(=O)c1ccc(C(=O)NCc2ccc3c(c2)cc(C)n3C)cc1
- EC50 [11]: 6.6 µM (active)
- EC50 [12]: 15.3 µM (not active)
- EC50 [13]: 6.71 µM (active)
- IC50 [14]: > 66 µM (inactive)
- IC50 [15]: > 66 µM (inactive)

SMILES: O=C(Nc1ccc(N=Nc2ccccc2)cc1)c1ccc(Cl)cc1Cl
- AC50 [16]: 39.8 µM (inconclusive)
- AC50 [1]: inconclusive

SMILES: COc1ccc2sc(-c3ccccc3OC)c(-c3ccc(O)cc3)c2c1
- AC50 [17]: 4.27 µM (active)
- AC50 [3]: 5.35 µM (active)

SMILES: O=C(Nc1nc(-c2ccc(Cl)cc2)cs1)C1CCCO1 (stereo unspecified)
- IC50 [2]: 19.1 µM (not active)

SMILES: O=c1oc2cc(Oc3c([N+](=O)[O-])cc(C(F)(F)F)cc3[N+](=O)[O-])ccc2c2c1CCCC2
- AC50 [18]: > 380 µM (inactive)
- EC50 [19]: 1.55 µM (active)
- AC50 [10]: 11.2 µM (inconclusive)
- AC50 [1]: inconclusive

SMILES: COc1ccc(NC(=O)c2ccc(=O)oc2)cc1
- IC50 [2]: 11.5 µM (not active)

SMILES: COc1ccc2sc(N3C(=O)C4CC=C(C)CC4C3=O)nc2c1 (stereo unspecified)
- IC50 [5]: 35 µM (active)

SMILES: COCC(=O)n1nc(NCc2ccc(OC)cc2)nc1NCc1ccc(OC)cc1
- AC50 [3]: 8.12 µM (active)

SMILES: O=C(COC(=O)CCc1ccccc1)NC12CC3CC(CC(C3)C1)C2
- IC50 [2]: 19.6 µM (not active)

SMILES: CCOc1ccc(Nc2nc(Cc3nnc(SCC(=O)NCc4ccco4)n3CC)cs2)cc1
- IC50 [5]: 28.1 µM (active)
